{"source": "patent US20030083374A1", "about": "“NAALADase inhibitors useful as pharmaceutical compounds and compositions” (priority 1998, published 2003)", "key": {"[1]": {"system": "Dorsal root ganglia-Schwann cell co-cultures", "assay": "in vitro myelination in dorsal root ganglia-Schwann cell co-cultures", "assay_type": "cell-based", "from_the_text": "The inventors hypothesized that NAALADase may play a role in signaling myelin formation and inhibition of NAALADase may facilitate myelination. To test this hypothesis, the inventors examined the effects of several NAALADase inhibitors in a well established in vitro model system of myelination. Dorsal root ganglia-Schwann cell co-cultures were established as previously described (Einheber et al., J. Cell. Biol., Vol. 123, p. 1223). Following 7 days in co-culture, myelination was initiated following the addition of serum and ascorbic acid with various doses of NAALADase inhibitors (1 nM to 10 μM) or progesterone (20 nM; positive control). The extent of myelination was examined between days 14-21 using immunocytochemical staining for myelin basic protein (MBP), a known myelin marker."}, "[2]": {"system": "cocaine-induced sensitization", "assay": "in vivo behavioral sensitization to cocaine", "parameters": "species or system Male Sprague-Dawley rats", "description": "NAALADase hydrolyzes the abundant neuropeptide NAAG to liberate glutamate (GLU). The inventors hypothesized that inhibition of NAALADase could attenuate sensitization by preventing this source of GLU. […] Male Sprague-Dawley rats received home cage injections of cocaine (20 mg/kg/day×5 days; i.p.) or sale (1.0 ml/kg). […] Cocaine (20 mg/kg)-induced locomotor activity was assessed 3 days later. […]"}, "LNCaP tumors [3]": {"system": "LNCaP tumors", "assay": "in vivo cancer assay, LNCaP model, subcutaneous drug delivery", "parameters": "species or system Ncr nude male mice", "description": "Ncr nude male mice, age 5 to 6 weeks, were injected in the right flank with 5×10^6 LNCaP cells in Matrigel™ (0.1 ml total injection volume). […] Controls received 50 mM HEPES s.c. daily. Once tumors were palpable they were measured twice a week.\n(§1) Response to treatment was monitored in two ways. First, mean tumor volume for each group was presented as tumor:control ratio (% T/C) and these values were compared at one point in time. Second, tumor volume versus time was monitored."}, "Dunning G tumors": {"system": "Dunning G tumors", "assay": "in vivo cancer assay, Dunning G model, subcutaneous drug delivery", "parameters": "species or system Male Copenhagen syngenic rats", "description": "Male Copenhagen syngenic rats, age 8 to 10 weeks, were injected in both flanks with 10^7 Dunning G cells. […] Controls received 50 mM HEPES s.c. daily. Tumors were measured twice a week.\nas §1"}, "LNCaP tumors [4]": {"system": "LNCaP tumors", "assay": "in vivo cancer assay, LNCaP model, intratumoral drug delivery", "parameters": "species or system Ncr nude male mice", "description": "Ncr nude male mice, age 5 to 6 weeks, were injected in the right flank with 10^7 LNCaP cells in Matrigel™ (0.1 ml total injection volume). When the tumors reached a predetermined size (50 to 60 mm^3) mice.were randomly placed into treatment groups of 6 to 8 mice each. […] Controls received 50 μl of 50 mM HEPES intratumorally daily. Tumors were measured twice a week.\nas §1"}, "[5]": {"system": "angiogenesis in Matrigel plugs", "assay": "in vivo assay of daily dosages on angiogenesis (Matrigel plug, bFGF)", "parameters": "species or system C57B1 female mice", "conditions": "3 mg/kg and 30 mg/kg daily s.c., seven days", "description": "The injected Matrigel™ rapidly formed a gel. On the same a day as the Matrigel™ injection, daily subcutaneous injections of Compound 3 around the Matrigel™ plug were initiated. Seven days post Matrigel™ injection, Matrigel™ plugs were excised and histology was performed.\nThe concentrations of the daily dosages as well as the coinciding initial Matrigel™ plug compositions are provided below in TABLE VI."}, "[6]": {"system": "angiogenesis in the Matrigel/bFGF gels", "assay": "in vivo assay of a continuous dosage on angiogenesis (minipump, Matrigel/bFGF)", "parameters": "species or system C57B1 female mice", "description": "Minipumps filled with vehicle (50 mM Hepes) were also implanted at this time. Twenty-four hours later, mice were each injected subcutaneously with 0.5 mL Matrigel™ and the 150 ng/mL of the angiogenic factor, basic FGF (bFGF). Thirteen days post Matrigel™/bFGF injection, the gels were recovered, fixed in formalin and sections were stained with Trichrome-Masson stain."}, "[7]": {"system": "formalin-induced flinching behavior", "assay": "formalin model of pain", "assay_type": "in vivo, rats", "conditions": "50 mg/kg i.p. daily for 7 days", "from_the_text": "(§2) One source of neuronal glutamate is thought to derive from the abundant neuropeptide NAAG which is hydrolyzed by NAALADase to liberate free glutamate. The inventors hypothesized that inhibition of NAALADase could limit pain by preventing this source of glutamate. To test this hypothesis, the inventors examined the possible antinocipetive effects of several NAALADase inhibitors in the formalin-, acetic acid- and chronic constrictive injury (CCI; “Bennett model”) models of pain. […] On day 7, 5% formalin was injected into the dorsum of the rat's hindpaw."}, "[8]": {"system": "acetic acid (0.6%) induced writhing", "assay": "acetic acid model of pain (writhing)", "assay_type": "in vivo, mice", "conditions": "pretreated", "from_the_text": "as §2"}, "[9]": {"system": "hyperalgesia following sciatic nerve constriction", "assay": "chronic constrictive injury (CCI) model of pain", "assay_type": "in vivo, rats", "from_the_text": "as §2\nSciatic nerve ligation, consisting of 4 ligatures being tied loosely around the sciatic nerve at 1 mm intervals proximal to the nerve trifurcation, was performed on rats. […] Animals were habituated to the Hargreaves apparatus and the infrared heat source directed onto the […] surface of the hindpaw and the time taken for the animal to withdraw its paw noted. The difference score (between the latency of the response for the paw on the operated side versus the control side) was determined. […] Normal (unoperated) rats had approximately equal latencies for both paws. This effect was significant starting at 11 days of drug treatment and persisted through to the end of the study (for 21 days of daily dosing)."}, "[10]": {"system": "stroke-induced extracellular glutamate increases", "conditions": "rats; cited from earlier work"}, "[11]": {"system": "cryolesion of the sciatic nerve", "conditions": "sciatic nerves in mice; cited from earlier work"}, "MPTP lesioned mice": {"system": "MPTP lesioned mice", "conditions": "cited from earlier work"}, "[12]": {"system": "dynorphin-induced spinal cord injury", "conditions": "co-administered with dynorphin A; by 24-hour post-injection; cited from earlier work"}, "[13]": {"system": "spinal cord organotypic cultures", "conditions": "cited from earlier work"}, "LNCaP cells": {"system": "LNCaP cells", "conditions": "as the concentration increased; cited from earlier work"}, "alcohol-preferring rats": {"system": "alcohol-preferring rats", "conditions": "rat, in vivo; cited from earlier work"}, "[14]": {"system": "nicotine self-administration in rats", "conditions": "rat, in vivo; cited from earlier work"}, "[15]": {"conditions": "50 mg/kg i.p. daily starting 10 days after surgery, day 18"}}, "data": [{"smiles": "O=C(O)CCC(CP(=O)(O)O)C(=O)O", "note": "(centres unmarked) [Compound 3, 2-(phosphonomethyl)-pentanedioic acid]", "values": [{"measurement": "immunostaining of MBP", "setting": "[1]; 1 nM, two week treatment", "result": "significant increase"}, {"measurement": "extent of myelination vs. maximal doses of ascorbic acid and progesterone", "setting": "[1]; high dose, 1 μM", "result": "greater extent of myelination"}, {"measurement": "enhancement of cocaine (20 mg/kg)-induced locomotor activity (sensitization)", "setting": "[2]; 10 and 50 mg/kg, 15 minutes prior to cocaine injections x 5 days, assessed 3 days later", "result": "significantly reduced"}, {"measurement": "basal locomotor activity or the response to saline", "setting": "[2]; Compound 3 on its own", "result": "did not alter"}, {"measurement": "tumor growth, % of controls", "setting": "LNCaP tumors [3]; 10 mg/kg s.c. daily, day 86", "result": 24, "unit": "%"}, {"measurement": "effect on tumor growth", "setting": "LNCaP tumors [3]; 1, 3 and 30 mg/kg s.c. daily", "result": "no effect on tumor growth"}, {"measurement": "tumor size, % of controls", "setting": "Dunning G tumors; 10 mg/kg s.c. daily", "result": 38, "unit": "%"}, {"measurement": "tumor size, % of controls", "setting": "Dunning G tumors; 30 mg/kg s.c. daily", "result": 22, "unit": "%"}, {"measurement": "effect on tumor growth", "setting": "Dunning G tumors; 1 and 3 mg/kg s.c. daily", "result": "no effect on tumor growth"}, {"measurement": "Tumor volume", "setting": "LNCaP tumors [4]; after 42 days of treatment, intratumoral 0.025 μg/day", "result": "465.7±176", "unit": "mm^3"}, {"measurement": "Optimal % T/C", "setting": "LNCaP tumors [4]; intratumoral 0.025 μg/day", "result": 42, "unit": "%"}, {"measurement": "Regressions", "setting": "LNCaP tumors [4]; intratumoral 0.025 μg/day", "result": "1/7"}, {"measurement": "Optimal % T/C", "setting": "LNCaP tumors [4]; intratumoral 0.25 μg/day", "result": 51, "unit": "%"}, {"measurement": "Regressions", "setting": "LNCaP tumors [4]; intratumoral 0.25 μg/day", "result": "1/7"}, {"measurement": "Optimal % T/C", "setting": "LNCaP tumors [4]; intratumoral 2.5 μg/day", "result": 45, "unit": "%"}, {"measurement": "Regressions", "setting": "LNCaP tumors [4]; intratumoral 2.5 μg/day", "result": "0/7"}, {"measurement": "Optimal % T/C", "setting": "LNCaP tumors [4]; intratumoral 25.0 μg/day", "result": 76, "unit": "%"}, {"measurement": "Regressions", "setting": "LNCaP tumors [4]; intratumoral 25.0 μg/day", "result": "0/7"}, {"measurement": "tumor growth", "setting": "LNCaP tumors [4]; intratumoral 0.025, 0.25 and 2.5 μg/day", "result": "slowed tumor growth substantially"}, {"measurement": "blood vessels or angiogenesis in the Matrigel plugs", "setting": "[5]", "result": "decrease in blood vessels or angiogenesis"}, {"measurement": "angiogenic response", "setting": "[6]; 1 μg/day by minipump", "result": "strong angiogenic response"}, {"measurement": "angiogenesis in the Matrigel/bFGF gels", "setting": "[6]; 10 μg/day and 100 μg/day by minipump", "result": "significantly decreased angiogenesis"}, {"measurement": "effect compared with acute pretreatment with morphine (5 mg/kg)", "setting": "[7]", "result": "more robust"}, {"measurement": "flinching behavior, early phase", "setting": "[7]; 5% formalin on day 7", "result": "2.5±3"}, {"measurement": "flinching behavior, late phase", "setting": "[7]; 5% formalin on day 7", "result": "0.5±0.58"}, {"measurement": "acetic acid (0.6%) induced writhing vs. vehicle control", "setting": "[8]", "result": "significantly attenuated"}, {"measurement": "difference scores (thermal pain response)", "setting": "[9]; [15]", "result": "−0.2±1.9"}, {"measurement": "pain attenuation vs. operated vehicle group", "setting": "[9]; [15]", "result": 98, "unit": "%"}, {"measurement": "difference scores between the two paws vs. vehicle-treated controls", "setting": "[9]; 50 mg/kg i.p. daily starting 10 days post surgery, significant starting at 11 days, through 21 days of dosing", "result": "dramatically normalized"}, {"measurement": "concurrent glutamate changes in the parietal cortex", "setting": "[10]", "result": "completely prevented"}, {"measurement": "stroke-induced extracellular glutamate increases in the striatum", "setting": "[10]", "result": "significantly attenuated"}, {"measurement": "myelin thickness", "setting": "[11]", "result": "increase"}, {"measurement": "myelinated axon number", "setting": "[11]", "result": "increase"}, {"measurement": "TH-stained dopaminergic neurons", "setting": "MPTP lesioned mice", "result": "significant recovery"}, {"measurement": "motor scores", "setting": "[12]", "result": "significant improvement"}, {"measurement": "protection against THA-induced toxicity", "setting": "[13]", "result": "dose-dependent protection"}, {"measurement": "LNCaP cell proliferation", "setting": "LNCaP cells", "result": "decreased significantly"}, {"measurement": "body weights or 24 hour water intakes", "setting": "alcohol-preferring rats", "result": "without affecting"}, {"measurement": "ethanol consumption", "setting": "alcohol-preferring rats", "result": "significantly reduced"}, {"measurement": "cumulative food intakes", "setting": "[14]", "result": "reduced"}, {"measurement": "nicotine self-administration", "setting": "[14]", "result": "reduced"}]}]}
